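A five-concentration, 48-hour dose response in 96-well plates underlies each endpoint, interpolated linearly between surrounding concentrations. GI50 = concentration required for 50% inhibition of growth.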 Active and inactive are the calls of the source. Cut-off read from the data, not from the text of the source: active = GI50 up to about 1.1 µM and inactive = higher.
Experiments:
Assay in all cases: NCI tumour cell line growth inhibition, 48 h
HL-60 = system: HL-60
786-0 = system: 786-0
OVCAR-4 = system: OVCAR-4
UACC-62 = system: UACC-62
SNB-19 = system: SNB-19
HCT-116 = system: HCT-116
SK-MEL-5 = system: SK-MEL-5
SK-MEL-28 = system: SK-MEL-28
SR = system: SR
MOLT-4 = system: MOLT-4
SF-268 = system: SF-268
K562 = system: K562
SF-295 = system: SF-295
CCRF-CEM = system: CCRF-CEM
Malme-3M = system: Malme-3M
HOP-92 = system: HOP-92
IGROV-1 = system: IGROV-1
HT-29 = system: HT-29
SK-MEL-2 = system: SK-MEL-2
M14 = system: M14
NCI-H460 = system: NCI-H460
KM-20L2 = system: KM-20L2
TK-10 = system: TK-10
RPMI-8226 = system: RPMI-8226
NCI-H23 = system: NCI-H23
DLD-1 = system: DLD-1
COLO 205 = system: COLO 205
CAKI-1 = system: CAKI-1
OVCAR-3 = system: OVCAR-3
SK-OV-3 = system: SK-OV-3
M19-MEL = system: M19-MEL
DMS-114 = system: DMS-114
RXF 631 = system: RXF 631
KM12 = system: KM12
NCI-H522 = system: NCI-H522
SF-539 = system: SF-539
NCI-H226 = system: NCI-H226
UO-31 = system: UO-31
ACHN = system: ACHN
SW-620 = system: SW-620
UACC-257 = system: UACC-257
HOP-18 = system: HOP-18
U-251 = system: U-251
HOP-62 = system: HOP-62
XF498 = system: XF498
OVCAR-8 = system: OVCAR-8
LXFL 529 = system: LXFL 529
RXF 393 = system: RXF 393
EKVX = system: EKVX
HCT-15 = system: HCT-15
A549 = system: A549
SN12C = system: SN12C
SNB-75 = system: SNB-75

Brc1ccc(/N=c2/nc3ccccn3n3nc(-c4ccccc4)cc23)cc1
GI50 (HL-60): > 100 µM (inactive) | GI50 (786-0): 19.9 µM (inactive) | GI50 (OVCAR-4): 5.89 µM (inactive) | GI50 (UACC-62): 15.1 µM (inactive) | GI50 (SNB-19): 28.5 µM (inactive) | GI50 (HCT-116): 52.6 µM (inactive) | GI50 (SK-MEL-5): > 100 µM (inactive) | GI50 (SK-MEL-28): 36 µM (inactive) | GI50 (SR): > 100 µM (inactive) | GI50 (MOLT-4): > 100 µM (inactive) | GI50 (SF-268): 41.6 µM (inactive) | GI50 (K562): > 100 µM (inactive) | GI50 (SF-295): 34.8 µM (inactive) | GI50 (CCRF-CEM): > 100 µM (inactive) | GI50 (Malme-3M): 4.34 µM (inactive) | GI50 (HOP-92): 17.8 µM (inactive) | GI50 (IGROV-1): > 100 µM (inactive) | GI50 (HT-29): 75.5 µM (inactive) | GI50 (SK-MEL-2): 9.57 µM (inactive) | GI50 (M14): 13.7 µM (inactive) | GI50 (NCI-H460): 45.1 µM (inactive) | GI50 (KM-20L2): 66.4 µM (inactive) | GI50 (TK-10): 29.8 µM (inactive) | GI50 (RPMI-8226): > 100 µM (inactive) | GI50 (NCI-H23): 55.3 µM (inactive) | GI50 (DLD-1): 14.7 µM (inactive) | GI50 (COLO 205): > 100 µM (inactive) | GI50 (CAKI-1): 15.9 µM (inactive) | GI50 (OVCAR-3): 22.1 µM (inactive) | GI50 (SK-OV-3): > 100 µM (inactive) | GI50 (M19-MEL): 43.6 µM (inactive) | GI50 (DMS-114): 99.8 µM (inactive) | GI50 (RXF 631): 31.6 µM (inactive) | GI50 (KM12): 39.9 µM (inactive) | GI50 (NCI-H522): 17.3 µM (inactive) | GI50 (SF-539): 28.3 µM (inactive) | GI50 (NCI-H226): 45.2 µM (inactive) | GI50 (UO-31): > 100 µM (inactive) | GI50 (ACHN): 26.2 µM (inactive) | GI50 (SW-620): 63.2 µM (inactive) | GI50 (UACC-257): 48.4 µM (inactive) | GI50 (HOP-18): 29.6 µM (inactive) | GI50 (U-251): 29 µM (inactive) | GI50 (HOP-62): 15 µM (inactive) | GI50 (XF498): 10.3 µM (inactive) | GI50 (OVCAR-8): 28.3 µM (inactive) | GI50 (LXFL 529): 56.8 µM (inactive) | GI50 (RXF 393): 14.9 µM (inactive) | GI50 (EKVX): 47.6 µM (inactive) | GI50 (HCT-15): 30.5 µM | GI50 (A549): 56.5 µM (inactive) | GI50 (SN12C): 81.8 µM (inactive) | GI50 (SNB-75): 52.4 µM (inactive)

From ChEMBL document CHEMBL1201862, “PubChem BioAssay data set” (2004)
